# Results from ChEMBL document CHEMBL1201862, “PubChem BioAssay data set” (2004).
#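 These data come from cells grown in 96-well plates and exposed to compound for 48 hours at five concentrations. The concentration for 50% growth inhibition is given as GI50.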 The source made the active and inactive calls. Cut-off read from the data, not from the text of the source: active = GI50 up to about 1.1 µM and inactive = higher.
# Columns and labels:
# Experiment in all cases: inhibition of tumour cell growth, NCI panel, 48 h
# [1] = tested on: OVCAR-3
# [2] = tested on: HL-60
# [3] = tested on: NCI/ADR-RES
# [4] = tested on: ACHN
# [5] = tested on: A549
# [6] = tested on: Hs-578T
# [7] = tested on: NCI-H23
# [8] = tested on: IGROV-1
# [9] = tested on: KM12
# [10] = tested on: MDA-MB-435
# [11] = tested on: SK-OV-3
# [12] = tested on: SR
# [13] = tested on: CCRF-CEM
# [14] = tested on: HOP-62
# [15] = tested on: MDA-N
# [16] = tested on: SF-539
# [17] = tested on: CAKI-1
# [18] = tested on: UACC-62
# [19] = tested on: SK-MEL-5
# [20] = tested on: K562
# [21] = tested on: OVCAR-4
# [22] = tested on: Malme-3M
# [23] = tested on: MCF7
# [24] = tested on: HT-29
# [25] = tested on: 786-0
# [26] = tested on: SNB-75
# [27] = tested on: SF-268
# [28] = tested on: SNB-19
# [29] = tested on: UACC-257
# [30] = tested on: SF-295
# [31] = tested on: COLO 205
# [32] = tested on: SK-MEL-28
# [33] = tested on: TK-10
# [34] = tested on: HOP-92
# [35] = tested on: BT-549
# [36] = tested on: M14
# [37] = tested on: HCT-15
# [38] = tested on: SN12C
# [39] = tested on: T47D
# [40] = tested on: LOX IMVI
# [41] = tested on: HCT-116
# [42] = tested on: RPMI-8226
# [43] = tested on: MOLT-4
# [44] = tested on: SW-620
# [45] = tested on: PC-3
# [46] = tested on: OVCAR-8
# [47] = tested on: MDA-MB-231
# [48] = tested on: DU-145
# [49] = tested on: U-251
# [50] = tested on: HCC 2998
# [51] = tested on: OVCAR-5
# [52] = tested on: SK-MEL-2
# [53] = tested on: NCI-H226
# [54] = tested on: NCI-H460
# [55] = tested on: NCI-H522
# [56] = tested on: EKVX
# [57] = tested on: RXF 393
# [58] = tested on: UO-31
smiles,measurement,setting,value
O=Cc1cc2c(cc1-c1c(C=O)ccc3c1OCO3)OCO2,GI50,[1],> 10 µM (inactive)
same,GI50,[2],> 10 µM (inactive)
same,GI50,[3],> 10 µM (inactive)
same,GI50,[4],> 10 µM (inactive)
same,GI50,[5],> 10 µM (inactive)
same,GI50,[6],> 10 µM (inactive)
same,GI50,[7],> 10 µM (inactive)
same,GI50,[8],> 10 µM (inactive)
same,GI50,[9],> 10 µM (inactive)
same,GI50,[10],> 10 µM (inactive)
same,GI50,[11],> 10 µM (inactive)
same,GI50,[12],> 10 µM (inactive)
same,GI50,[13],> 10 µM (inactive)
same,GI50,[14],> 10 µM (inactive)
same,GI50,[15],> 10 µM (inactive)
same,GI50,[16],> 10 µM (inactive)
same,GI50,[17],> 10 µM (inactive)
same,GI50,[18],> 10 µM (inactive)
same,GI50,[19],> 10 µM (inactive)
same,GI50,[20],> 10 µM (inactive)
same,GI50,[21],> 10 µM (inactive)
same,GI50,[22],> 10 µM (inactive)
same,GI50,[23],> 10 µM (inactive)
same,GI50,[24],> 10 µM (inactive)
same,GI50,[25],> 10 µM (inactive)
same,GI50,[26],> 10 µM (inactive)
same,GI50,[27],> 10 µM (inactive)
same,GI50,[28],> 10 µM (inactive)
same,GI50,[29],> 10 µM (inactive)
same,GI50,[30],> 10 µM (inactive)
same,GI50,[31],> 10 µM (inactive)
same,GI50,[32],> 10 µM (inactive)
same,GI50,[33],> 10 µM (inactive)
same,GI50,[34],> 10 µM (inactive)
same,GI50,[35],> 10 µM (inactive)
same,GI50,[36],> 10 µM (inactive)
same,GI50,[37],> 10 µM
same,GI50,[38],> 10 µM (inactive)
same,GI50,[39],> 10 µM (inactive)
same,GI50,[40],> 10 µM (inactive)
same,GI50,[41],> 10 µM (inactive)
same,GI50,[42],> 10 µM (inactive)
same,GI50,[43],> 10 µM (inactive)
same,GI50,[44],> 10 µM (inactive)
same,GI50,[45],> 10 µM (inactive)
same,GI50,[46],> 10 µM (inactive)
same,GI50,[47],> 10 µM (inactive)
same,GI50,[48],> 10 µM (inactive)
same,GI50,[49],> 10 µM (inactive)
same,GI50,[50],> 10 µM (inactive)
Cc1nn2c(=O)c([N+](=O)[O-])c(/C=C/c3ccco3)nc2s1,GI50,[1],38.8 µM (inactive)
same,GI50,[51],73.1 µM (inactive)
same,GI50,[2],30.8 µM (inactive)
same,GI50,[3],46.9 µM (inactive)
same,GI50,[4],60.5 µM (inactive)
same,GI50,[52],57 µM (inactive)
same,GI50,[5],53.5 µM (inactive)
same,GI50,[6],27.8 µM (inactive)
same,GI50,[7],50.5 µM (inactive)
same,GI50,[8],51.8 µM (inactive)
same,GI50,[9],39.2 µM (inactive)
same,GI50,[10],21.1 µM (inactive)
same,GI50,[11],43.6 µM (inactive)
same,GI50,[12],28.2 µM (inactive)
same,GI50,[13],31.7 µM (inactive)
same,GI50,[14],> 100 µM (inactive)
same,GI50,[53],77.3 µM (inactive)
same,GI50,[54],36.2 µM (inactive)
same,GI50,[15],26.9 µM (inactive)
same,GI50,[16],47.4 µM (inactive)
same,GI50,[17],52.6 µM (inactive)
same,GI50,[18],65.3 µM (inactive)
same,GI50,[19],25.9 µM (inactive)
same,GI50,[20],36.6 µM (inactive)
same,GI50,[21],> 100 µM (inactive)
same,GI50,[22],68.9 µM (inactive)
same,GI50,[23],38.5 µM (inactive)
same,GI50,[55],60.5 µM (inactive)
same,GI50,[24],56.1 µM (inactive)
same,GI50,[25],76 µM (inactive)
same,GI50,[26],31.5 µM (inactive)
same,GI50,[27],36.4 µM (inactive)
same,GI50,[28],59 µM (inactive)
same,GI50,[29],87.5 µM (inactive)
same,GI50,[30],91 µM (inactive)
same,GI50,[31],61.4 µM (inactive)
same,GI50,[32],48.6 µM (inactive)
same,GI50,[33],> 100 µM (inactive)
same,GI50,[56],26.4 µM (inactive)
same,GI50,[34],36.2 µM (inactive)
same,GI50,[35],28.7 µM (inactive)
same,GI50,[36],64.7 µM (inactive)
same,GI50,[37],41.5 µM
same,GI50,[38],64.9 µM (inactive)
same,GI50,[39],27.8 µM (inactive)
same,GI50,[40],17.6 µM (inactive)
same,GI50,[41],36.3 µM (inactive)
same,GI50,[42],36.7 µM (inactive)
same,GI50,[57],28.7 µM (inactive)
same,GI50,[43],31.7 µM (inactive)
same,GI50,[44],48.2 µM (inactive)
same,GI50,[45],68.2 µM (inactive)
same,GI50,[46],32.7 µM (inactive)
same,GI50,[47],63.4 µM (inactive)
same,GI50,[48],40.5 µM (inactive)
same,GI50,[49],29.4 µM (inactive)
same,GI50,[50],> 100 µM (inactive)
same,GI50,[58],58.7 µM (inactive)
